Measurements reported in US20050037923A1, “Herbicidal mixture based on 7-pyrazolybenzoxazoles” (BASF Aktiengesellschaft, priority 2001, published 2005).
Counter-ions that a name gives are not always drawn.

Assays:
Assay in all cases: Greenhouse test, post-emergence herbicidal action
[1] = tested on: BIDPI; format: in vivo, hairy beggarticks
Excerpt: (§1) For the post-emergence treatment, the test plants were first grown to a height of 3 to 20 cm, depending on the plant habit, and only then treated. Here, the herbicidal compositions were suspended or emulsified in water as distribution medium and sprayed using finely distributing nozzles.
(§2) The respective components A and B and/or C were formulated as 10% by weight strength emulsion concentrate and introduced to the spray liquor with the amount of solvent system used for applying the active compound. In the examples, the solvent used was water.
(§3) The test period extended over 21 days. During this time, the plants were tended, and their response to the treatments with active compound was evaluated.
(§4) The evaluation for the damage caused by the chemical compositions was carried out using a scale from 0 to 100%, compared to the untreated control plants. Here, 0 means no damage and 100 means complete destruction of the plants.
(§5) In the examples below, the value E which is to be expected if the activity of the individual active compounds is just additive was calculated using the method of S. R. Colby (1967) “Calculating synergistic and antagonistic responses of herbicide combinations”, Weeds 15, p. 22 ff. E=X+Y—(X·Y/100) where • X=effect in percent using active compound A at an application rate a; • Y=effect in percent using active compound B at an application rate b; • E=expected effect (in %) of A+B at application rates a+b.
(§6) The plants used in the greenhouse experiments were of the following species: […]

[2] = tested on: BRAPL; format: in vivo, alexandergrass
Excerpt: as §1, §2, §3, §4, §5, §6

[3] = tested on: AVEFA; format: in vivo, wild oat
Excerpt: as §1, §2, §3, §4, §5, §6

[4] = tested on: POLPE; format: in vivo, ladysthumb
Excerpt: as §1, §2, §3, §4, §5, §6

[5] = tested on: SETVI; format: in vivo, green foxtail; details: application rate 15.63 g/ha
Excerpt: as §1, §2, §3, §4, §5, §6

[6] = tested on: SETFA; format: in vivo, giant foxtail; details: 21 days
Excerpt: as §1, §2, §3, §4, §5, §6

[7] = tested on: ECHCG; format: in vivo, barnyardgrass
Excerpt: as §1, §2, §3, §4, §5, §6

[8] = tested on: COMBE; format: in vivo, tropical spiderwort; details: 21 days
Excerpt: as §1, §2, §3, §4, §5, §6

[9] = tested on: GALAP; format: in vivo, catchweed bedstraw
Excerpt: as §1, §2, §3, §4, §5, §6

[10] = application rate 15.63 g/ha, 21 days
[11] = application rate 31.25 g/ha, 21 days
[12] = application rate 62.5 g/ha (Example 24)
[13] = application rate 125 g/ha (Example 24)
[14] = application rate 125 g/ha (Example 28)
[15] = application rate 250 g/ha (Example 28)
[16] = application rate 125 g/ha (Example 32)
[17] = application rate 250 g/ha (Example 32)

In the case of `CNC.O=C(O)COc1ccc(Cl)cc1Cl` [2,4-D dimethylamine salt], the “Herbicidal action against BIDPI, Found” value ([1]; application rate 31.25 g/ha) was 80%, the “Herbicidal action against BIDPI, Found” value ([1]; application rate 62.5 g/ha (Example 31)) was 80% and the “Herbicidal action against BRAPL, Found” value ([2]; application rate 31.25 g/ha) was 10%. The “Herbicidal action against BRAPL, Found” value ([2]; application rate 62.5 g/ha) was 15%.

With `CCCOc1nn(C(=O)[N-]S(=O)(=O)c2ccccc2C(=O)OC)c(=O)n1C.[Na+]` [propoxycarbazone sodium salt] the “Herbicidal action against BIDPI, Found” value ([1]; application rate 3.91 g/ha (Example 27)) was 30% and the “Herbicidal action against BIDPI, Found” value ([1]; application rate 7.81 g/ha (Example 27)) was 40%.

With `CP(=O)(O)CCC(N)C(=O)O` (centres unmarked) [glufosinate ammonium salt] the “Herbicidal action against BRAPL, Found” value ([2]; application rate 125 g/ha (Example 17)) was 45% and the “Herbicidal action against BRAPL, Found” value ([2]; application rate 125 g/ha (Example 18)) was 45%.

With `CC(C)N.O=C(O)CNCP(=O)(O)O` [glyphosate isopropylamine salt] the “Herbicidal action against AVEFA, Found” value ([3]; application rate 250 g/ha (Example 15)) was 40% and the “Herbicidal action against AVEFA, Found” value ([3]; application rate 250 g/ha (Example 16)) was 40%.

For `CCOC(=O)c1cnn(C)c1S(=O)(=O)NC(=O)Nc1nc(OC)cc(OC)n1` [pyrazosulfuron-ethyl, reference compound], the “Herbicidal action against AVEFA, Found” value [3, 10] was 0%, the “Herbicidal action against AVEFA, Found” value [3, 11] was 10% and the “Herbicidal action against POLPE, Found” value [4, 10] was 40%. For the same compound, the “Herbicidal action against POLPE, Found” value [4, 11] was 55%.

In the case of `O=C(Nc1ccc(F)cc1)c1cccc(Oc2cccc(C(F)(F)F)c2)n1` [picolinafen], the “Herbicidal action against SETVI, Found” value [5] was 40%.

In the case of `CC(C)c1ccc(NC(=O)N(C)C)cc1` [isoproturon], the “Herbicidal action against BIDPI, Found” value ([1]; application rate 62.5 g/ha) was 30% and the “Herbicidal action against BIDPI, Found” value ([1]; application rate 125 g/ha) was 60%.

For `CC/C(=N\OC/C=C/Cl)C1=C(O)CC(C2CCOCC2)CC1=O` (centres unmarked) [tepraloxydim, reference compound], the “Herbicidal action against AVEFA, Found” value ([3]; application rate 7.81 g/ha, 21 days) was 70%, the “Herbicidal action against AVEFA, Found” value [3, 10] was 80% and the “Herbicidal action against SETFA, Found” value ([6]; application rate 7.81 g/ha) was 70%. For the same compound, the “Herbicidal action against SETFA, Found” value ([6]; application rate 15.63 g/ha) was 80%.

In the case of `O=C(O)c1c(Cl)ccc2cc(Cl)cnc12` [quinclorac], the “Herbicidal action against ECHCG, Found” value [7, 12] was 10%, the “Herbicidal action against ECHCG, Found” value [7, 13] was 10% and the “Herbicidal action against POLPE, Found” value [4, 12] was 15%. For the same compound, the “Herbicidal action against POLPE, Found” value [4, 13] was 15%.

`COc1c(Cl)ccc(Cl)c1C(=O)O` [dicamba] was tested, and the “Herbicidal action against AVEFA, Found” value [3, 14] was 20%, the “Herbicidal action against AVEFA, Found” value [3, 15] was 20% and the “Herbicidal action against BRAPL, Found” value [2, 14] was 20%. For the same compound, the “Herbicidal action against BRAPL, Found” value [2, 15] was 20%.

`Cc1cnc(C2=NC(=O)C(C)(C(C)C)N2)c(C(=O)O)c1` (centres unmarked) [imazapic, reference compound] was tested, and the “Herbicidal action against COMBE, Found” value ([8]; application rate 15.63 g/ha) was 0%, the “Herbicidal action against COMBE, Found” value ([8]; application rate 31.25 g/ha) was 40% and the “Herbicidal action against POLPE, Found” value [4, 10] was 75%. For the same compound, the “Herbicidal action against POLPE, Found” value [4, 11] was 80%.

For `CS(=O)(=O)c1ccc(C(=O)C2C(=O)CCCC2=O)c([N+](=O)[O-])c1` [mesotrione], the “Herbicidal action against ECHCG, Found” value ([7]; application rate 7.81 g/ha) was 45% and the “Herbicidal action against ECHCG, Found” value ([7]; application rate 15.63 g/ha) was 70%.

In the case of `CCc1cccc(C)c1N(C(=O)CCl)[C@@H](C)COC` [S-metolachlor], the “Herbicidal action against GALAP, Found” value ([9]; application rate 125 g/ha (Example 29)) was 0% and the “Herbicidal action against GALAP, Found” value ([9]; application rate 250 g/ha (Example 29)) was 20%.

With `CCC(C)(CC)c1cc(NC(=O)c2c(OC)cccc2OC)on1` [isoxaben] the “Herbicidal action against GALAP, Found” value [9, 16] was 0%, the “Herbicidal action against GALAP, Found” value [9, 17] was 0% and the “Herbicidal action against ECHCG, Found” value [7, 16] was 0%. For the same compound, the “Herbicidal action against ECHCG, Found” value [7, 17] was 0%.
